Results from PubChem BioAssay AID1259411 (Chemical Carcinogenesis Research Information System (CCRIS), 2018).
The source made the active and inactive calls. No rule for the calls is given here.

Test system: rodent carcinogenicity bioassays, tumor incidence
Test: CCRIS carcinogenicity studies
Summary of the method: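 Archive of carcinogenicity, mutagenicity, tumor promotion and tumor inhibition results drawn from journals, NCI reports and other sources, expert-reviewed; covers 1985-2011 and is no longer updated.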

Nc1ccccc1-c1ccccc1
carcinogen call (Species: MOUSE, Strain/Sex: B6C3F1/FEMALE, Route: ORAL, Dose: 0, 1000, 3000 PPM IN DIET FOR 103 WK (STUDY DURATION: 103 WK), Dose: 0, 1000, 3000 PPM IN DIET FOR 103 WK (STUDY DURATION: 103 WK), Tumor Site: Type of Lesion: BLOOD VESSELS: HEMANGIOMA, HEMANGIOSARCOMA): active; positive | carcinogen call (Species: MOUSE, Strain/Sex: B6C3F1/MALE, Route: ORAL, Dose: 0, 1000, 3000 PPM IN DIET FOR 103 WK (STUDY DURATION: 103 WK), Dose: 0, 1000, 3000 PPM IN DIET FOR 103 WK (STUDY DURATION: 103 WK), Tumor Site: Type of Lesion: SPLEEN: HEMANGIOSARCOMA): equivocal | carcinogen call (Species: RAT, Strain/Sex: F344/FEMALE, Route: ORAL, Dose: 0, 1000, 3000 PPM IN DIET FOR 103 WK (STUDY DURATION: 103 WK), Dose: 0, 1000, 3000 PPM IN DIET FOR 103 WK (STUDY DURATION: 103 WK)): inactive; negative | carcinogen call (Species: RAT, Strain/Sex: F344/MALE, Route: ORAL, Dose: 0, 1000, 3000 PPM IN DIET FOR 103 WK (STUDY DURATION: 103 WK), Dose: 0, 1000, 3000 PPM IN DIET FOR 103 WK (STUDY DURATION: 103 WK)): inactive; negative

CCSC(=O)N(CC(C)C)CC(C)C
carcinogen call (Species: Mouse, Strain/Sex: CD-1/Female (50/sex/group), Route: Oral, Dose: 0, 20, 80, 320 mg/kg/d in diet for 2 yrs, Dose: 0, 20, 80, 320 mg/kg/d in diet for 2 yrs): inactive; negative; probable purity of 97-98% | carcinogen call (Species: Mouse, Strain/Sex: CD-1/Male (50/sex/group), Route: Oral, Dose: 0, 20, 80, 320 mg/kg/d in diet for 2 yrs, Dose: 0, 20, 80, 320 mg/kg/d in diet for 2 yrs): inactive; negative; probable purity of 97-98% | carcinogen call (Species: Rat, Strain/Sex: Sprague-Dawley/Female (70/sex/group), Route: Oral, Dose: 0, 50, 100, 200, 400 mg/kg/d in diet for 12, 18, or 24 mo, Dose: 0, 50, 100, 200, 400 mg/kg/d in diet for 12, 18, or 24 mo): inactive; negative; probable purity of 97-98% (there were probably 10 animals in each inte | carcinogen call (Species: Rat, Strain/Sex: Sprague-Dawley/Male (70/sex/group), Route: Oral, Dose: 0, 50, 100, 200, 400 mg/kg/d in diet for 12, 18, or 24 mo, Dose: 0, 50, 100, 200, 400 mg/kg/d in diet for 12, 18, or 24 mo): inactive; negative; probable purity of 97-98% (there were probably 10 animals in each inte

CCC(C)OC(OC(C)CC)C(=O)c1ccccc1 (configuration not stated)
carcinogen call (Species: MOUSE, Strain/Sex: C3H/HEJ/MALE, Route: DERMAL, Dose: 0, 22.4 MG UNDILUTED 3/WK FOR LIFESPAN (STUDY DURATION: LIFESPAN)): inactive; negative

Cc1cc2ccccc2c2ccc3c(c12)[C@@H]1O[C@@H]1[C@H](O)[C@H]3O
carcinogen call (Species: MOUSE, Strain/Sex: ICR/FEMALE, Route: INTRAPERITONEAL, Dose: 0, 8 NMOL IN 5 µL DMSO ON D 1, 16 NMOL IN 10 µL ON D 8 AND 32 NMOL IN 20 µL ON D 15 OF LIFE (STUDY DURATION: 35 WK), Tumor Site: Type of Lesion: LUNG: TUMOR): active; positive | carcinogen call (Species: MOUSE, Strain/Sex: ICR/FEMALE, Route: INTRAPERITONEAL, Dose: 0, 8 NMOL IN 5 µL DMSO TO PUPS ON D 1/OF LIFE THEN 16 NMOL IN 10 µL ON D 8 AND 3 NMOL IN 20 µL ON D 15 (STUDY DURATION:, Tumor Site: Type of Lesion: LUNG: TUMOR): active; positive | carcinogen call (Species: MOUSE, Strain/Sex: ICR/FEMALE, Route: INTRAPERITONEAL, Dose: 8 NMOL/5 µL DMSO ON DAY 1, 16 NMOL/10 µL ON DAY 8, AND 32 NMOL/20 µL ON DAY 15 OF AGE (STUDY DURATION: 35 WK), Tumor Site: Type of Lesion: LUNG: TUMORS): active; positive | carcinogen call (Species: MOUSE, Strain/Sex: ICR/MALE, Route: INTRAPERITONEAL, Dose: 0, 8 NMOL IN 5 µL DMSO ON D 1, 16 NMOL IN 10 µL ON D 8 AND 32 NMOL IN 20 µL ON D 15 OF LIFE (STUDY DURATION: 35 WK), Tumor Site: Type of Lesion: LUNG: TUMOR, LIVER: TUMOR): active; positive | carcinogen call (Species: MOUSE, Strain/Sex: ICR/MALE, Route: INTRAPERITONEAL, Dose: 0, 8 NMOL IN 5 µL DMSO TO PUPS ON D 1/OF LIFE THEN 16 NMOL IN 10 µL ON D 8 AND 3 NMOL IN 20 µL ON D 15 (STUDY DURATION:, Tumor Site: Type of Lesion: LUNG: TUMOR, LIVER: TUMOR): active; positive | carcinogen call (Species: MOUSE, Strain/Sex: ICR/MALE, Route: INTRAPERITONEAL, Dose: 8 NMOL/5 µL DMSO ON DAY 1, 16 NMOL/10 µL ON DAY 8, AND 32 NMOL/20 µL ON DAY 15 OF AGE (STUDY DURATION: 35 WK), Tumor Site: Type of Lesion: LUNG: TUMORS, LIVER: TUMORS): active; positive

O=[N+]([O-])c1c(Cl)c(Cl)c(Cl)c(Cl)c1Cl
carcinogen call (Species: MOUSE, Route: DERMAL, Tumor Site: Type of Lesion: INTEGUMENTARY SYSTEM (SKIN)): active; positive | carcinogen call (Species: MOUSE, Route: ORAL, Tumor Site: Type of Lesion: LIVER): active; positive | carcinogen call (Species: MOUSE, Strain/Sex: B6C3F1/FEMALE, Route: ORAL, Dose: 0, 4093, 8187 PPM IN DIET, TWA, Dose: 0, 4093, 8187 PPM IN DIET, TWA): inactive; negative | carcinogen call (Species: MOUSE, Strain/Sex: B6C3F1/MALE, Route: ORAL, Dose: 0, 2500, 5000 PPM IN DIET FOR 103 WK (STUDY DURATION = 104 WK), Dose: 0, 2500, 5000 PPM IN DIET FOR 103 WK (STUDY DURATION = 104 WK)): inactive; negative | carcinogen call (Species: MOUSE, Strain/Sex: B6C3F1/MALE, Route: ORAL, Dose: 0, 2606, 5213 PPM IN DIET, TWA, Dose: 0, 2606, 5213 PPM IN DIET, TWA): inactive; negative | carcinogen call (Species: RAT, Strain/Sex: OSBORNE-MENDEL/FEMALE, Route: ORAL, Dose: 0, 7875, 14635 PPM IN DIET, TWA, Dose: 0, 7875, 14635 PPM IN DIET, TWA): inactive; negative | carcinogen call (Species: RAT, Strain/Sex: OSBORNE-MENDEL/MALE, Route: ORAL, Dose: 0, 5417, 10064 PPM IN DIET, TWA, Dose: 0, 5417, 10064 PPM IN DIET, TWA): inactive; negative

CC(CCC(=O)N(CC(=O)O)N=O)C1CCC2C3C(O)CC4C[C@H](O)CCC4(C)C3C[C@H](O)C12C (some centres not stated)
carcinogen call (Species: RAT, Strain/Sex: F344/MALE, Route: GAVAGE, Dose: 0, 10 MG IN 50 µL DMSO 5 D/WK FOR 6 WK (STUDY DURATION: 108 WK), Tumor Site: Type of Lesion: LIVER: CARCINOMA): active; positive

ClCCN(CCCl)c1ccc2ccccc2c1
carcinogen call (Species: HUMAN, Route: ORAL, Tumor Site: Type of Lesion: URINARY BLADDER): active; positive | carcinogen call (Species: MOUSE, Strain/Sex: STRAIN-A, Route: INTRAPERITONEAL, Dose: 75, 300, 1200, 4800 MG/KG IN 12 DOSES OVER 4 WK, Dose: 75, 300, 1200, 4800 MG/KG IN 12 DOSES OVER 4 WK, Tumor Site: Type of Lesion: LUNG: ADENOMA): active; positive | carcinogen call (Species: RAT, Route: SUBCUTANEOUS, Dose: 40 MG IN REPEATED DOSES, Tumor Site: Type of Lesion: INJECTION SITE): active; positive

CO/N=C(/C(=O)OC)c1ccccc1COc1ccccc1C
carcinogen call (Species: Mouse, Strain/Sex: Strain not specified by Department of Pesticide Regulation /Female (50/Group), Route: Oral, Dose: 0, 81, 400, 1662 mg/kg/day of 93.7-96.6% kresoxim-methyl in diet for 18 mo, study duration 18 mo, Dose: 0, 81, 400, 1662 mg/kg/day of 93.7-96.6% kresoxim-methyl in diet for 18 mo, study duration 18 mo): inactive; negative | carcinogen call (Species: Mouse, Strain/Sex: Strain not specified by Department of Pesticide Regulation /Male (50/Group), Route: Oral, Dose: 0, 60, 304, 1305 mg/kg/day of 93.7-96.6% kresoxim-methyl in diet for 18 mo, study duration 18 mo, Dose: 0, 60, 304, 1305 mg/kg/day of 93.7-96.6% kresoxim-methyl in diet for 18 mo, study duration 18 mo): inactive; negative | carcinogen call (Species: Rat, Strain/Sex: Wistar/Female (20/Group), Route: Oral, Dose: 0, 12, 48, 503, 985 mg/kg/day of 93.7-96.6% kresoxim-methyl in diet for 24 mo, study duration 24 mo, Dose: 0, 12, 48, 503, 985 mg/kg/day of 93.7-96.6% kresoxim-methyl in diet for 24 mo, study duration 24 mo, Tumor Site: Type of Lesion: Liver: hepatocellular carcinoma (1/20, 0/20, 2/20, 6/20, 6/20)): active; positive | carcinogen call (Species: Rat, Strain/Sex: Wistar/Female (50/Group), Route: Oral, Dose: 0, 12, 47, 497, 1046 mg/kg/day of 93.7-96.6% kresoxim-methyl in diet for 24 mo, study duration 24 mo, Dose: 0, 12, 47, 497, 1046 mg/kg/day of 93.7-96.6% kresoxim-methyl in diet for 24 mo, study duration 24 mo, Tumor Site: Type of Lesion: Liver: hepatocellular carcinoma (1/50, 1/50, 2/50, 13/50, 16/50)): active; positive | carcinogen call (Species: Rat, Strain/Sex: Wistar/Male (20/Group), Route: Oral, Dose: 0, 9, 36, 370, 746 mg/kg/day of 93.7-96.6% kresoxim-methyl in diet for 24 mo, study duration 24 mo, Dose: 0, 9, 36, 370, 746 mg/kg/day of 93.7-96.6% kresoxim-methyl in diet for 24 mo, study duration 24 mo, Tumor Site: Type of Lesion: Liver: hepatocellular carcinoma (0/20, 1/20, 1/20, 3/20, 8/20)): active; positive | carcinogen call (Species: Rat, Strain/Sex: Wistar/Male (50/Group), Route: Oral, Dose: 0, 9, 36, 375, 770 mg/kg/day of 93.7-96.6% kresoxim-methyl in diet for 24 mo, study duration 24 mo, Dose: 0, 9, 36, 375, 770 mg/kg/day of 93.7-96.6% kresoxim-methyl in diet for 24 mo, study duration 24 mo, Tumor Site: Type of Lesion: Liver: hepatocellular carcinoma (7/50, 5/50, 2/50, 18/50, 11/50). Spleen: hemangiosarcoma (0/50, 0/50, 2/50, 2/50, 3/50)): active; positive
